Assay [1] deals with T1, Full-length human MNK1 (Homo sapiens, UniProt Q9BUB5, T385D).
T1 construct: GST (N); purchased Carna Biosciences 02-145; host or cells: baculovirus expression system
Kind of assay: MNK1 biochemical IC50 assay (Caliper Mobility Shift Assay). To be noted: read-out: P(IC50) MNK1 (converted). From the text:
(§1) The phosphorylated peptide product and unphosphorylated peptide substrate were detected using a Caliper Mobility Shift Assay using the Caliper LabChip EZ Reader II.
(§2) The Caliper Mobility Shift Assay technology is based on the utilisation of a microfluidic chip to measure the conversion of a fluorescent non-phosphorylated peptide substrate to phosphorylated product by electrophoresis separation of substrate and product and detection via Laser-induced fluorescence. The LabChip EZ Reader software calculates the relative heights of substrate and product peaks and reports the peak ratio (Product peak(P) divided by the sum of Product peak(P) and Substrate peak(S)). The percent-conversion is calculated as 100×[(P/(P+S)]. All assays were set up to run in the linear phase with a maximum of 10 percent substrate conversion.
(§3) These were N-terminal GST fusion proteins expressed in baculovirus expression system and purified by glutathione sepharose affinity chromatography. […] All other assay reagents were sourced from Sigma.
Compounds were serially diluted in DMSO to generate a 10-point half log dilution curve with a final top concentration of 100 uM in the assay. […] Compounds were pre-incubated with enzyme and peptide in reaction buffer for 30 mins prior to addition of ATP to initiate the reaction. Final assay concentrations were 3 nM MNK1, 2 uM peptide substrate, 50 uM ATP, 50 mM Hepes pH 7.0, 0.01% BSA, 10 mM MgCl2, 1 mM dithiothrietol.
(§4) The assay incubation times were adjusted depending on the concentration of ATP used. Assays were performed at low (50 uM) and high (1 mM) ATP. The low ATP values were selected to run at Km conditions for the standard assay to allow relative potencies to be compared across other kinases. The high ATP concentration was selected as representative of cellular ATP concentrations, and for an indication of ATP competition, where a significant shift (greater than half log) in apparent potency would be expected compared to Km conditions. All IC50 values reported are the average of at least two independent experiments.

Assay [2] deals with T2, Full-length human MNK2 (Homo sapiens, UniProt Q9HBH9, T379D).
T2 construct: GST (N); purchased Carna Biosciences 02-146; host or cells: baculovirus expression system
Kind of assay: MNK2 biochemical IC50 assay (Caliper Mobility Shift Assay).
From the text: as §1, §2, §3, §4
Reactions were performed as above using 10 nM MNK2 in the assay. Standard assays contained 50 uM ATP and high concentration ATP assays contained 1 mM ATP. […] All other conditions were the same.

Assay [3] concerns phosphorylation of eIF4E at ser209 in MV4.11 cell line. Kind of assay: MNK cellular activity phospho-eIF4E detection assay (Alphascreen Surefire). Type of assay: cell-based. Particulars: Homo sapiens. How it is done:
The assay detection is based on the formation of sandwich antibody complexes coupled to donor and acceptor beads. Excitation at 680 nm causes the transfer of a singlet oxygen species between donor and acceptor beads when they are in close proximity by binding to the analyte ([…]), which results in the emission of light at 520-620 nm.
Cells were then lysed and the Alphascreen Surefire protocol followed according to manufacturer's recommendations. 8 ul Acceptor beads (1:50 dilution in kit activation buffer) was added to lysate, shaken 150 rpm for 2 min and incubated for 1.5 hr at room temperature. 3 ul Donor beads (1:20 dilution in kit dilution buffer) were then added, shaken 150 rpm for 2 min and incubated for a further 1.5 hr at room temperature after which the plates were read on Pherastar FS using Alphascreen optic module.
Data were normalised relative to untreated DMSO only controls and curves repeated in duplicate within experiments. Data reported are averages of at least 2 independent experiments.

The mark [4] stands for this setting: read-out: P(IC50) MNK2 (converted).
Where [5] appears, read: MV4.11 cell line, phospho-eIF4E (ser209) Alphascreen Surefire, read-out: P(IC50) elF4E (converted).

Where two headings read alike, the source gives them in different places.

This note sets out measurements from US10669284B2, “Fused thiazolopyrimidine derivatives as MNKS inhibitors” (LIFEARC, priority 2015, dated 2020).

T1 sequence (Q9BUB5 1-424 isoform Q9BUB5-2 T344D): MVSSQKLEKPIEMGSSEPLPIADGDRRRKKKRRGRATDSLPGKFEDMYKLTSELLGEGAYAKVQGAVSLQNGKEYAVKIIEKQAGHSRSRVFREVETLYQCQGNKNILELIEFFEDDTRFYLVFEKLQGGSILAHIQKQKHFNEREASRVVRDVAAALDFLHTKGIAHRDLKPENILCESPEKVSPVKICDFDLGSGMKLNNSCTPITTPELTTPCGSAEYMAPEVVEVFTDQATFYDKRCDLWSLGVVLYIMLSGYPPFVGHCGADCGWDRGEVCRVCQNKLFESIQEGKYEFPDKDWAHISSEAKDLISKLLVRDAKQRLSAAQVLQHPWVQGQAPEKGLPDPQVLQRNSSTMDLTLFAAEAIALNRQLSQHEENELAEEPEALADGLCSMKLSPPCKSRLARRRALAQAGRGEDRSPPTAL
T2 sequence (Q9HBH9 whole entry T379D): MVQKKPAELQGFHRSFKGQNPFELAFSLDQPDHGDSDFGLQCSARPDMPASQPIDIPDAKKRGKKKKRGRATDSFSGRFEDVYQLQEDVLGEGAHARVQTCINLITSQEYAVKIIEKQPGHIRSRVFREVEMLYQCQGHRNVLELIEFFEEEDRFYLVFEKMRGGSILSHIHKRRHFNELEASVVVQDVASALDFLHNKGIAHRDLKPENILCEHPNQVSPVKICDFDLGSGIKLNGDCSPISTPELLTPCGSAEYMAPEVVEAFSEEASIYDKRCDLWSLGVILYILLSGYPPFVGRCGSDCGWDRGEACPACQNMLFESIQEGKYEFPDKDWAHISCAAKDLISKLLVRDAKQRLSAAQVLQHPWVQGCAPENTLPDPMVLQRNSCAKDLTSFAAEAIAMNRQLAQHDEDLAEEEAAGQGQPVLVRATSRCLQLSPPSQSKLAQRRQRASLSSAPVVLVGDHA

Usually IC50 stands for the concentration that gives 50% inhibition. With `CNCCCNC(=O)c1nc2c(N3CCc4cc(F)ccc43)ncnc2s1` [Example 72, 7-(5-fluoroindolin-1-yl)-N-[3-(methylamino)propyl]thiazolo[5,4-d]pyrimidine-2-carboxamide], the half-inhibitory concentration (IC50) in assay [1], in assay [2] (setting [4]) and in assay [3] (setting [5]) was 5.01 nM in each case.

`O=C(NCCN1CCCC1)c1nc2c(N3CCc4cc(F)ccc43)ncnc2s1` [Example 74, 7-(5-fluoroindolin-1-yl)-N-(2-pyrrolidin-1-ylethyl)thiazolo[5,4-d]pyrimidine-2-carboxamide]: the 50% inhibitory concentration (IC50) in assay [1] is 6.31 nM; in assay [2] (setting [4]), 5.01 nM; in assay [3] (setting [5]), 20 nM.

As for `O=C(NCCCn1cccn1)c1nc2c(N3CCc4cc(F)ccc43)ncnc2s1` [Example 75, 7-(5-fluoroindolin-1-yl)-N-(3-pyrazol-1-ylpropyl)thiazolo[5,4-d]pyrimidine-2-carboxamide], the 50% inhibitory concentration (IC50) was 3.16 nM in assay [1], 3.16 nM in assay [2] (setting [4]) and 15.8 nM in assay [3] (setting [5]).

With `O=C(NC1CCOCC1)c1nc2c(N3CC(CCN4CCOCC4)c4cc(F)ccc43)ncnc2s1` (stereo not drawn) [Example 151, 7-[5-fluoro-3-(2-morpholinoethyl)indolin-1-yl]-N-tetrahydropyran-4-yl-thiazolo[5,4-d]pyrimidine-2-carboxamide], the figures for the IC50 in assay [1], in assay [2] (setting [4]) and in assay [3] (setting [5]) were 100 nM, 100 nM and 31.6 nM, respectively.

For the compound `CC(C)Oc1cc(F)ccc1Nc1ncnc2sc(C(=O)NC3CCOCC3)nc12` [Example 33, 7-{[4-fluoro-2-(propan-2-yloxy)phenyl]amino}-N-(tetrahydro-2H-pyran-4-yl)[1,3]thiazolo[5,4-d]pyrimidine-2-carboxamide], the IC50 was 100 nM in assay [1], 79.4 nM in assay [2] (setting [4]) and 79.4 nM in assay [3] (setting [5]).

As for `CN(C)C(=O)c1nc2c(N3CCc4cc(F)ccc43)ncnc2s1` [Example 70, 7-(5-fluoroindolin-1-yl)-N,N-dimethyl-thiazolo[5,4-d]pyrimidine-2-carboxamide], the half-inhibitory concentration (IC50) in assay [1] is 50.1 nM; in assay [2] (setting [4]), 20 nM; in assay [3] (setting [5]), 63.1 nM.

As for `NCC1CN(c2ncnc3sc(C(=O)NC4CCOCC4)nc23)c2ccccc21` (stereo not drawn) [Example 119, 7-[3-(Aminomethyl)indolin-1-yl]-N-tetrahydropyran-4-yl-thiazolo[5,4-d]pyrimidine-2-carboxamide], the IC50 in assay [1] was 12.6 nM; in assay [2] (setting [4]) it was 15.8 nM; in assay [3] (setting [5]) it was 20 nM.

On to `O=C(NCC1CCOCC1)c1nc2c(N3CCc4ccccc43)ncnc2s1` [Example 103, 7-indolin-1-yl-N-(tetrahydropyran-4-ylmethyl)thiazoto[5,4-d]pyrimidine-2-carboxamide], for which the IC50 in assay [1] was 10 nM; in assay [2] (setting [4]), 10 nM; in assay [3] (setting [5]) it was 63.1 nM.

In the case of `CC(C)(O)CC1CN(c2ncnc3sc(C(=O)NCC4CCNCC4)nc23)c2ccc(F)cc21` (stereo not drawn) [Example 143], the concentration for half-maximal inhibition (IC50) in assay [1] is 7.94 nM; in assay [2] (setting [4]), 6.31 nM; in assay [3] (setting [5]), 5.01 nM.

As to `Nc1nc2c(N3CCc4cc(F)ccc43)ncnc2s1` [Example 83, 7-(5-Fluoroindolin-1-yl)thiazolo[5,4-d]pyrimidin-2-amine], the IC50 in assay [1] was 31.6 nM; in assay [2] (setting [4]), 39.8 nM; in assay [3] (setting [5]), 126 nM.

With `CC1(C)CN(c2ncnc3sc(C(=O)NCCCO)nc23)c2ccccc21` [Example 163], the concentration for half-maximal inhibition (IC50) in assay [1] was 10 nM; in assay [2] (setting [4]), 3.98 nM; in assay [3] (setting [5]) it was 5.01 nM.

As for `C[C@@H]1Cc2ccccc2N1c1ncnc2sc(C(=O)NC3CCOCC3)nc12` [Example 130, 7-[(2R)-2-methylindolin-1-yl]-N-tetrahydropyran-4-yl-thiazolo[5,4-d]pyrimidine-2-carboxamide], the IC50 was 50.1 nM in assay [1], 39.8 nM in assay [2] (setting [4]) and 50.1 nM in assay [3] (setting [5]).

Regarding `CN(C)CCC1CN(c2ncnc3sc(C(=O)NC4CCOCC4)nc23)c2ccccc21` (stereo not drawn) [Example 152, 7-[3-[2-(dimethylamino)ethyl]-indolin-1-yl]-N-tetrahydropyran-4-yl-thiazolo[5,4-d]pyrimidine-2-carboxamide], the IC50 is 100 nM in assay [1], 79.4 nM in assay [2] (setting [4]) and 50.1 nM in assay [3] (setting [5]).

`Cc1ccc2c(c1)CCN2c1ncnc2sc(C(=O)NCC3CCNCC3)nc12` [Example 170, 7-(5-Methylindolin-1-yl)-N-(4-piperidylmethyl)thiazolo[5,4-d]pyrimidine-2-carboxamide]: the IC50 in assay [1] is 63.1 nM; in assay [2] (setting [4]), 25.1 nM; in assay [3] (setting [5]) it was 79.4 nM.

With `C[C@@H]1Cc2ccccc2N1c1ncnc2sc(C(=O)NC3CCNCC3)nc12` [Example 129, 7-[(2R)-2-methylindolin-1-yl]-N-(4-piperidyl) thiazolo[5,4-d]pyrimidine-2-carboxamide], the figures for the IC50 in assay [1], in assay [2] (setting [4]) and in assay [3] (setting [5]) were 15.8 nM, 15.8 nM and 79.4 nM, respectively.

`O=C(NC1COC1)c1nc2c(N3CCc4cc(F)ccc43)ncnc2s1` [Example 76, 7-(5-fluoroindolin-1-yl)-N-(oxetan-3-yl)thiazolo[5,4-d]pyrimidine-2-carboxamide]: the IC50 in assay [1] is 6.31 nM; in assay [2] (setting [4]), 3.16 nM; in assay [3] (setting [5]), 7.94 nM.

On to `CNCCNC(=O)c1nc2c(N3CCc4cc(F)ccc43)ncnc2s1` [Example 71, 7-(5-fluoroindolin-1-yl)-N-[2-(methylamino)ethyl]thiazolo[5,4-d]pyrimidine-2-carboxamide], for which the IC50 in assay [1] was 10 nM; in assay [2] (setting [4]) it was 6.31 nM; in assay [3] (setting [5]), 15.8 nM.

As to `CC1(C)CN(c2ncnc3sc(C(=O)NCC4CCNCC4)nc23)c2ccccc21` [Example 161], the IC50 in assay [1] was 3.16 nM; in assay [2], 2.51 nM; in assay [3] (MV4-11, read-out: P(IC50) elF4E), 3.16 nM.

In the case of `CC(C)Oc1cc(F)ccc1Nc1ncnc2sc(C(=O)NCCC3CCN(C)CC3)nc12` [Example 37, 7-{[4-fluoro-2-(propan-2-yloxy)phenyl]amino}-N-[2-(1-methylpiperidin-4-yl)ethyl][1,3]thiazolo[5,4-d]pyrimidine-2-carboxamide], the IC50 was 39.8 nM in assay [1], 39.8 nM in assay [2] (setting [4]) and 25.1 nM in assay [3] (setting [5]).

For `CC1(C)CN(c2ncnc3sc(C(=O)NCCCN4CCCC4)nc23)c2ccccc21` [Example 160], the values for the concentration for half-maximal inhibition (IC50) in assay [1], in assay [2] (setting [4]) and in assay [3] (setting [5]) were 6.31 nM, 6.31 nM and 7.94 nM, respectively.

For `CN1CCN(CCC2CN(c3ncnc4sc(C(=O)NC5CCOCC5)nc34)c3ccc(F)cc32)CC1` (stereo not drawn) [Example 150, 7-[5-fluoro-3-[2-(4-methylpiperazin-1-yl)ethyl]indolin-1-yl]-N-tetrahydropyran-4-yl-thiazolo[5,4-d]pyrimidine-2-carboxamide], the figures for the IC50 in assay [1], in assay [2] (setting [4]) and in assay [3] (setting [5]) were 63.1 nM, 63.1 nM and 25.1 nM, respectively.

As to `CC(C)Oc1cc(F)ccc1Nc1ncnc2sc(C(=O)NCCCN(C)C)nc12` [Example 3, N-[3-(Dimethylamino)propyl]-7-(4-fluoro-2-isopropoxy-anilino)thiazolo[5,4-d]pyrimidine-2-carboxamide], the concentration for half-maximal inhibition (IC50) is 63.1 nM in assay [1], 50.1 nM in assay [2] (setting [4]) and 50.1 nM in assay [3] (setting [5]).
